# Assay results published in patent US20240083861A1, “HSD17B13 INHIBITORS AND USES THEREOF” (FL2022-001, Inc., priority 2020, published 2024).
# Counter-ions that a name gives are not always drawn.
# Target: T1, Recombinant human HSD17B13 enzyme (Homo sapiens, UniProt Q7Z5P4)
# T1 sequence (Q7Z5P4 20-300): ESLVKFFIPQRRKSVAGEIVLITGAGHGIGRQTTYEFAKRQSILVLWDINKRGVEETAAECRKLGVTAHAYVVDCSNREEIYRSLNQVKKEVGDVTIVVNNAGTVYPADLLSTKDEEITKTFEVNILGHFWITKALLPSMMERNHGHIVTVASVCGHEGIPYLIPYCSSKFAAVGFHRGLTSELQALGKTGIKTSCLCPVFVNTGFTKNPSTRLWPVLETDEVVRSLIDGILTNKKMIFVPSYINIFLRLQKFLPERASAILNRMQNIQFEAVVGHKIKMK
# Assay: HSD17b13 NAD(P)H-Glo biochemical assay
# Details: 50 uM estradiol, 1 mM NAD+, NAD(P)H-Glo luminescence; read-out: HSD17β13 IC50
# How it was run: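 Recombinant human HSD17B13 in 20 mM Tris pH7.4 with 0.002% Tween-20 and 0.02% BSA was preincubated with inhibitor for 20 minutes at RT. The reaction ran 3 hours at 37° C with 50 uM estradiol and 1 mM NAD+ (final). NADH formed was detected by NAD(P)H-Glo luminescence after 1 hour at RT.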
row,IC50,SMILES
1,100 to 1000 nM,"Cn1nc(-c2cc(C(F)(F)F)c(F)c(O)c2F)c2cnc(N3CCN(C(=O)c4ccncc4)CC3)nc21 [Compound 18.122, (4-(3-(2,4-Difluoro-3-hydroxy-5-(trifluoromethyl)phenyl)-1-methyl-1H-pyrazolo[3,4-d]pyrimidin-6-y1)piperazin-1-yl)(pyridin-4-yl)methanone]"
2,< 100 nM,"Cn1nc(-c2cc(C(F)(F)F)c(F)c(O)c2F)c2cnc(N3CCN(C(=O)C4CC4)CC3)nc21 [Compound 18.123, Cyclopropyl(4-(3-(2,4-difluoro-3-hydroxy-5-(trifluoromethyl)phenyl)-1-methyl-1H-pyrazolo[3,4-d]pyrimidin-6-y1)piperazin-1-yl)methanone]"
3,< 100 nM,"Cn1nc(-c2cc(C(F)(F)F)c(F)c(O)c2F)c2cnc(N(Cc3ccccc3)C3CCC3)nc21 [Compound 18.124, 3-(6-(Benzyl(cyclobutyl)amino)-1-methyl-1H-pyrazolo[3,4-d]pyrimidin-3-y1)-2,6-difluoro-5-(trifluoromethyl)phenol]"
4,< 100 nM,"Cn1nc(-c2cc(C(F)(F)F)c(F)c(O)c2F)c2cnc(N3CCN(C(=O)NC4CCCCC4)CC3)nc21 [Compound 18.125, N-Cyclohexyl-4-(3-(2,4-difluoro-3-hydroxy-5-(trifluoromethyl)phenyl)-1-methyl-1H-pyrazolo[3,4-d]pyrimidin-6-y1)piperazine-1-carboxamide]"
5,100 to 1000 nM,"Cn1nc(-c2cc(C(F)(F)F)c(F)c(O)c2F)c2cnc(N3CCN(C(=O)CN4CCOCC4)CC3)nc21 [Compound 18.126, 1-(4-(3-(2,4-Difluoro-3-hydroxy-5-(trifluoromethyl)phenyl)-1-methyl-1H-pyrazolo[3,4-d]pyrimidin-6-y1)piperazin-1-yl)-2-morpholinoethan-1-one]"
6,100 to 1000 nM,"Cn1nc(-c2cc(C(F)(F)F)c(F)c(O)c2F)c2cnc(N3CCN(C(=O)C4CCOCC4)CC3)nc21 [Compound 18.127, (4-(3-(2,4-Difluoro-3-hydroxy-5-(trifluoromethyl)phenyl)-1-methyl-1H-pyrazolo[3,4-d]pyrimidin-6-yl)piperazin-1-yl)(tetrahydro-2H-pyran-4-yl)methanone]"
7,100 to 1000 nM,"Cn1nc(-c2cc(C(F)(F)F)c(F)c(O)c2F)c2cnc(N3CCN(C(=O)c4cccnc4)CC3)nc21 [Compound 18.128, (4-(3-(2,4-Difluoro-3-hydroxy-5-(trifluoromethyl)phenyl)-1-methyl-1H-pyrazolo[3,4-d]pyrimidin-6-yl)piperazin-1-yl)(pyridin-3-yl)methanone]"
8,< 100 nM,"CC(=O)N1CCN(c2ncc3c(-c4cc(C(F)(F)F)c(F)c(O)c4F)nn(C)c3n2)C2(CC2)C1 [Compound 18.129, 1-(4-(3-(2,4-Difluoro-3-hydroxy-5-(trifluoromethyl)phenyl)-1-methyl-1H-pyrazolo[3,4-d]pyrimidin-6-yl)-4,7-diazaspiro[2.5]octan-7-yl)ethan-1-one]"
9,< 100 nM,"Cn1nc(-c2cc(C(F)(F)F)c(F)c(O)c2F)c2cnc(N3CCOCC3C3CCCCC3)nc21 (centres unmarked) [Compound 18.130, 3-(6-(3-Cyclohexylmorpholino)-1-methyl-1H-pyrazolo[3,4-d]pyrimidin-3-y1)-2,6-difluoro-5-(trifluoromethyl)phenol]"
10,100 to 1000 nM,"Cn1nc(-c2cc(C(F)(F)F)c(F)c(O)c2F)c2cnc(N3CCO[C@@H](CO)C3)nc21 [Compound 18.131, (R)-2,6-Difluoro-3-(6-(2-(hydroxymethyl)morpholino)-1-methyl-1H-pyrazolo[3,4-d]pyrimidin-3-y1)-5-(trifluoromethyl)phenol]"
11,< 100 nM,"Cn1nc(-c2cc(C(F)(F)F)c(F)c(O)c2F)c2cnc(N3CCOCC3)nc21 [Compound 18.132, 2,6-Difluoro-3-(1-methyl-6-morpholino-1H-pyrazolo[3,4-d]pyrimidin-3-y1)-5-(trifluoromethyl)phenol]"
12,100 to 1000 nM,"CN(c1ncc2c(-c3cc(C(F)(F)F)c(F)c(O)c3F)nn(C)c2n1)C1CCNCC1 [Compound 19, 2,6-Difluoro-3-(1-methyl-6-(methyl(piperidin-4-yl)amino)-1H-pyrazolo[3,4-d]pyrimidin-3-y1)-5-(trifluoromethyl)phenol]"
13,< 100 nM,"CC(=O)N1CCC(N(C)c2ncc3c(-c4cc(C(F)(F)F)c(F)c(O)c4F)nn(C)c3n2)CC1 [Compound 19.01, 1-(4-((3-(2,4-Difluoro-3-hydroxy-5-(trifluoromethyl)phenyl)-1-methyl-1H-pyrazolo[3,4-d]pyrimidin-6-y1)(methyl)amino)piperidin-1-yl)ethan-1-one]"
14,< 100 nM,"Cn1nc(-c2cc(C(F)(F)F)c(F)c(O)c2F)c2cnc(N(Cc3ccccc3)C3CCOCC3)nc21 [Compound 19.02, 3-(6-(Benzyl(tetrahydro-2H-pyran-4-yl)amino)-1-methyl-1H-pyrazolo[3,4-d]pyrimidin-3-y1)-2,6-difluoro-5-(trifluoromethyl)phenol]"
15,< 100 nM,"Cn1nc(-c2cc(C(F)(F)F)c(F)c(O)c2F)c2cnc(N3CCNC4(CCC4)C3)nc21 [Compound 20, 2,6-Difluoro-3-(1-methyl-6-(5,8-diazaspiro[3.5]nonan-8-yl)-1H-pyrazolo[3,4-d]pyrimidin-3-y1)-5-(trifluoromethyl)phenol HCl salt]"
16,< 100 nM,"CNC(=O)N1CCN(c2ncc3c(-c4cc(C(F)(F)F)c(F)c(O)c4F)nn(C)c3n2)CC12CCC2 [Compound 20.01, 8-(3-(2,4-Difluoro-3-hydroxy-5-(trifluoromethyl)phenyl)-1-methyl-1H-pyrazolo[3,4-d]pyrimidin-6-yl)-N-methyl-5,8-diazaspiro[3.5]nonane-5-carboxamide]"
17,< 100 nM,"CN(C)C(=O)N1CCN(c2ncc3c(-c4cc(C(F)(F)F)c(F)c(O)c4F)nn(C)c3n2)CC12CCC2 [Compound 20.02, 8-(3-(2,4-Difluoro-3-hydroxy-5-(trifluoromethyl)phenyl)-1-methyl-1H-pyrazolo[3,4-d]pyrimidin-6-yl)-N,N-dimethy1-5,8-diazaspiro[3.5]nonane-5-carboxamide]"
18,< 100 nM,"COC(=O)N1CCN(c2ncc3c(-c4cc(C(F)(F)F)c(F)c(O)c4F)nn(C)c3n2)CC12CCC2 [Compound 20.03, Methyl 8-(3-(2,4-difluoro-3-hydroxy-5-(trifluoromethyl)phenyl)-1-methyl-1H-pyrazolo[3,4-d]pyrimidin-6-yl)-5,8-diazaspiro[3.5]nonane-5-carboxylate]"
19,< 100 nM,"C[C@@H]1CN(C(=O)Nc2ccccc2)CCN1c1cc2c(cn1)c(-c1cc(C(F)(F)F)c(F)c(O)c1F)nn2C [Compound 21, (R)-4-(3-(2,4-Difluoro-3-hydroxy-5-(trifluoromethyl)phenyl)-1-methyl-1H-pyrazolo[4,3-c]pyridin-6-yl)-3-methyl-N-phenylpiperazine-1-carboxamide]"
20,< 100 nM,"Cn1nc(-c2cc(C(F)(F)F)c(F)c(O)c2F)c2cnc(N3CCN(C(=O)Nc4ccccc4)CC3)cc21 [Compound 21.01, 4-(3-(2,4-Difluoro-3-hydroxy-5-(trifluoromethyl)phenyl)-1-methyl-1H-pyrazolo[4,3-c]pyridin-6-y1)-N-phenylpiperazine-1-carboxamide]"
21,< 100 nM,"C[C@H]1CN(C(=O)Nc2ccccc2)CCN1c1cc2c(cn1)c(-c1cc(C(F)(F)F)c(F)c(O)c1F)nn2C [Compound 21.02, (S)-4-(3-(2,4-Difluoro-3-hydroxy-5-(trifluoromethyl)phenyl)-1-methyl-1H-pyrazolo[4,3-c]pyridin-6-y1)-3-methyl-N-phenylpiperazine-1-carboxamide]"
22,< 100 nM,"Cn1nc(-c2cc(C(F)(F)F)c(F)c(O)c2F)c2cnc(N3CCN(C(=O)Nc4ccccc4)CC3(C)C)cc21 [Compound 21.03, 4-(3-(2,4-Difluoro-3-hydroxy-5-(trifluoromethyl)phenyl)-1-methyl-1H-pyrazolo[4,3-c]pyridin-6-y1)-3,3-dimethyl-N-phenylpiperazine-1-carboxamide]"
23,< 100 nM,"Cn1nc(-c2cc(C(F)(F)F)c(F)c(O)c2F)c2cnc(N3CCN(C(=O)Nc4ccccc4)CC34CC4)cc21 [Compound 21.04, 4-(3-(2,4-Difluoro-3-hydroxy-5-(trifluoromethyl)phenyl)-1-methyl-1H-pyrazolo[4,3-c]pyridin-6-y1)-N-phenyl-4,7-diazaspiro[2.5]octane-7-carboxamide]"
24,< 100 nM,"Cn1nc(-c2cc(C(F)(F)F)c(F)c(O)c2F)c2cnc(N3CCN(C(=O)Nc4ccccc4)CC34CCC4)cc21 [Compound 21.05, 5-(3-(2,4-Difluoro-3-hydroxy-5-(trifluoromethyl)phenyl)-1-methyl-1H-pyrazolo[4,3-c]pyridin-6-y1)-N-phenyl-5,8-diazaspiro[3.5]nonane-8-carboxamide]"
25,< 100 nM,"C[C@H]1CN(c2cc3c(cn2)c(-c2cc(C(F)(F)F)c(F)c(O)c2F)nn3C)CCN1C(=O)Nc1ccccc1 [Compound 21.06, (S)-4-(3-(2,4-Difluoro-3-hydroxy-5-(trifluoromethyl)phenyl)-1-methyl-1H-pyrazolo[4,3-c]pyridin-6-y1)-2-methyl-N-phenylpiperazine-1-carboxamide]"
26,< 100 nM,"C[C@@H]1CN(c2cc3c(cn2)c(-c2cc(C(F)(F)F)c(F)c(O)c2F)nn3C)CCN1C(=O)Nc1ccccc1 [Compound 21.07, (R)-4-(3-(2,4-Difluoro-3-hydroxy-5-(trifluoromethyl)phenyl)-1-methyl-1H-pyrazolo[4,3-c]pyridin-6-y1)-2-methyl-N-phenylpiperazine-1-carboxamide]"
